Assay results: patent US9023789B2, “Amylin analogs and pharmaceutical compositions thereof” (Novo Nordisk A/S, priority 2012, dated 2015)
Read-outs that look alike come from different tables or passages of the source. Numbered stars: 1 amine (or outer) side, 2 acyl side, 3 side chain; on linkers, the order of the positions; unused ones are H or OH. Bridge positions count the residues as written; N and C are the ends. Side chains are listed from the residue outwards. Peptide text beside a SMILES is read from it. * marks the point of attachment. C20 diacid = O=C(O)CCCCCCCCCCCCCCCCCCC(=O)*; γGlu = O=C(O)[C@H](CCC(=O)[*:2])N[*:1]; AEEA = NCCOCCOCC(=O)O

How the values were obtained:
[1] = biological target: T1, human amylin 3(a) receptor (human calcitonin receptor + RAMP-3) in BHK570 cells (Homo sapiens, UniProt O60896+P30988); assay: ASSAY (II)a functional assay, human amylin receptor (CRE luciferase); type: cell-based
T1 construct: expressed in transfected cells
Method in brief: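 Receptor activation is measured as cAMP-driven CRE-luciferase expression in BHK cells expressing the calcitonin receptor, with RAMP-3 co-expressed to form the amylin 3(a) receptor. Cells are exposed to compound for 3 hours at 37° C, and luciferase is then quantified by luminescence.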

[2] = biological target: T2, human amylin receptor (membranes from Amylin 3(a)/CRE-luc cells) (Homo sapiens, UniProt O60896+P30988); assay: ASSAY (V) binding to the human amylin receptor (SPA, 125I-rat amylin);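 further: competition binding of cell membranes (35 ng/µL) mixed with SPA beads in 384-well plates at 40 µL total volume, read by scintillation counting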
T2 construct: expressed in transfected cells
T2 sequence (P30988 25-474): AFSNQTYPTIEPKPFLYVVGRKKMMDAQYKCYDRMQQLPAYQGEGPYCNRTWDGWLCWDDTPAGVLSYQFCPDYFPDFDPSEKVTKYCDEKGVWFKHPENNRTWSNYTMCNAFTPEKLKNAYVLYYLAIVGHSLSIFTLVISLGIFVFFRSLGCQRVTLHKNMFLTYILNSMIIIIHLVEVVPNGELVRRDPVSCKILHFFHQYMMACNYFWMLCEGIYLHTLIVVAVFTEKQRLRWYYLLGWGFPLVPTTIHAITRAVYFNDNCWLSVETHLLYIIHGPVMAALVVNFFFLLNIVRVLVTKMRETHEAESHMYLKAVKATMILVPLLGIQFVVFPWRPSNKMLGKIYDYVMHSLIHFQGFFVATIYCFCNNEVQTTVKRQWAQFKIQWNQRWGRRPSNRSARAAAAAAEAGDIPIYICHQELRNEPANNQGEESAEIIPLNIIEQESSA
T2 sequence (O60896 24-148 partner): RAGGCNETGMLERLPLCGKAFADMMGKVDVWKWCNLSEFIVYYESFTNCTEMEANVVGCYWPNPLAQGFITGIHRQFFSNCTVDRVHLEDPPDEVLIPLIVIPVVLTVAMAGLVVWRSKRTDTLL

[3] = ASSAY (III) ThT fibrillation assay for physical stability; type: physicochemical
Method in brief: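 Physical stability scored by ThT fluorescence (444 nm excitation, 485 nm emission) tracked every 20 min during 37 °C incubation with 960 rpm shaking, ThT at 1 μM final. Values are replicate means with SD at chosen times; HPLC against pramlintide standard gives initial and post-assay soluble concentrations.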

[4] = hCTR funct. EC50 divided by hAmylin-R funct. EC50
[5] = hCTR funct. EC50 over hAmylin-R funct. EC50
[6] = human functional selectivity: hCTR funct. EC50 / hAmylin-R funct. EC50
[7] = Table 5, selectivity, hCTR bind IC50 / hAmylin-R bind IC50
[8] = Table 5a, selectivity, hCTR bind IC50 / hAmylin-R bind IC50
[9] = Table 5b, selectivity, hCTR bind IC50 / hAmylin-R bind IC50
[10] = Table 5c, selectivity, hCTR bind IC50 / hAmylin-R bind IC50
[11] = Table 7, human binding selectivity, included for comparison
[12] = Table 7a (preferred compounds), human binding selectivity, included for comparison
[13] = ratio of human calcitonin receptor binding IC50 to human amylin receptor binding IC50

Ratio hCT/hAmylin funct. [1, 4]	Ratio hCT/hAmylin funct. [1, 5]	EC50 ([1]; human amylin receptor functional potency, assay (II), read-out: hAmylin-R funct. EC50) [pM]	Ratio hCT/hAmylin funct. [1, 6]	IC50 ([2]; Table 4, read-out: hAmylin-R bind IC50) [pM]	Ratio hCT/hAmylin binding [2, 7]	Ratio hCT/hAmylin binding [2, 8]	Ratio hCT/hAmylin binding [2, 9]	Ratio hCT/hAmylin binding [2, 10]	Ratio hCT/hAmylin binding [2, 11]	Ratio hCT/hAmylin binding [2, 12]	Ratio hCT/hAmylin binding [2, 13]	ThT pH 4.0 lag time (h) [3] [h]	SMILES	EC50 [1] [pM]	IC50 [2] [pM]
38.6	38.6	242	38.6	649	82.4	82.4	82.4	82.4	82.4	82.4	82.4	45	CC[C@H](C)[C@H](NC(=O)[C@H](C)NC(=O)CNC(=O)[C@H](Cc1ccccc1)NC(=O)[C@H](CC(N)=O)NC(=O)[C@@H]1CCCN1C(=O)[C@H](CO)NC(=O)[C@H](CO)NC(=O)[C@H](Cc1c[nH]cn1)NC(=O)[C@H](CCCNC(=N)N)NC(=O)[C@H](CC(C)C)NC(=O)[C@H](Cc1ccccc1)NC(=O)[C@H](CCCNC(=N)N)NC(=O)[C@H](C)NC(=O)[C@H](CC(C)C)NC(=O)[C@H](CCCNC(=N)N)NC(=O)[C@H](CCC(N)=O)NC(=O)[C@@H](NC(=O)[C@H](C)NC(=O)[C@@H]1CSSC[C@H](NC(=O)[C@@H](N)CCCCNC(=O)CC[C@H](NC(=O)CCCCCCCCCCCCCCCCCCC(=O)O)C(=O)O)C(=O)N[C@@H](CC(N)=O)C(=O)N[C@@H]([C@@H](C)O)C(=O)N[C@@H](C)C(=O)N[C@@H]([C@@H](C)O)C(=O)N1)[C@@H](C)O)C(=O)N1CCC[C@H]1C(=O)N[C@@H](CO)C(=O)N[C@@H](CO)C(=O)N[C@H](C(=O)N[C@@H](CC(N)=O)C(=O)N[C@H](C(=O)NCC(=O)N1CCC[C@H]1C(=O)N[C@@H](CC(N)=O)C(=O)N[C@H](C(=O)N[C@@H](Cc1ccc(O)cc1)C(N)=O)[C@@H](C)O)C(C)C)[C@@H](C)O [Example 65] (H-K([γGlu-C20 diacid])CNTATCATQRLARFLRHSSPNFGAIPSSTNVGPNTY-NH2; disulfide 2-7 (inferred); N-terminus assumed)		
5.2			5.2		51.6	51.6	51.6	51.6	51.6	51.6	51.6	26	CC[C@H](C)[C@H](NC(=O)[C@H](C)NC(=O)CNC(=O)[C@H](Cc1ccccc1)NC(=O)[C@H](CC(N)=O)NC(=O)[C@@H]1CCCN1C(=O)[C@H](CO)NC(=O)[C@H](CO)NC(=O)[C@H](Cc1c[nH]cn1)NC(=O)[C@H](CCCNC(=N)N)NC(=O)[C@H](CC(C)C)NC(=O)[C@H](Cc1ccccc1)NC(=O)[C@H](Cc1c[nH]cn1)NC(=O)[C@H](C)NC(=O)[C@H](CC(C)C)NC(=O)[C@H](CCCNC(=N)N)NC(=O)[C@H](CCC(N)=O)NC(=O)[C@@H](NC(=O)[C@H](C)NC(=O)[C@@H]1CSSC[C@H](NC(=O)[C@@H](N)CCCCNC(=O)CC[C@H](NC(=O)CCCCCCCCCCCCCCCCCCC(=O)O)C(=O)O)C(=O)N[C@@H](CC(N)=O)C(=O)N[C@@H]([C@@H](C)O)C(=O)N[C@@H](C)C(=O)N[C@@H]([C@@H](C)O)C(=O)N1)[C@@H](C)O)C(=O)N1CCC[C@H]1C(=O)N[C@@H](CO)C(=O)N[C@@H](CO)C(=O)N[C@H](C(=O)N[C@@H](CC(N)=O)C(=O)N[C@H](C(=O)NCC(=O)N1CCC[C@H]1C(=O)N[C@@H](CC(N)=O)C(=O)N[C@H](C(=O)N[C@@H](Cc1ccc(O)cc1)C(N)=O)[C@@H](C)O)C(C)C)[C@@H](C)O [Example 67] (H-K([γGlu-C20 diacid])CNTATCATQRLAHFLRHSSPNFGAIPSSTNVGPNTY-NH2; disulfide 2-7 (inferred); N-terminus assumed)		
17.4	17.4		17.4		64.4	64.4	64.4	64.4	64.4	64.4	64.4	24	CC[C@H](C)[C@H](NC(=O)[C@H](C)NC(=O)CNC(=O)[C@H](Cc1ccccc1)NC(=O)[C@H](CC(N)=O)NC(=O)[C@@H]1CCCN1C(=O)[C@H](CO)NC(=O)[C@H](CO)NC(=O)[C@H](Cc1c[nH]cn1)NC(=O)[C@H](CCCNC(=N)N)NC(=O)[C@H](CC(C)C)NC(=O)[C@H](Cc1ccccc1)NC(=O)[C@H](Cc1c[nH]cn1)NC(=O)[C@H](C)NC(=O)[C@H](CC(C)C)NC(=O)[C@H](CCCNC(=N)N)NC(=O)[C@H](CCC(N)=O)NC(=O)[C@@H](NC(=O)[C@H](C)NC(=O)[C@@H]1CSSC[C@H](NC(=O)[C@@H](N)CCCCNC(=O)COCCOCCNC(=O)CC[C@H](NC(=O)CCCCCCCCCCCCCCCCCCC(=O)O)C(=O)O)C(=O)N[C@@H](CC(N)=O)C(=O)N[C@@H]([C@@H](C)O)C(=O)N[C@@H](C)C(=O)N[C@@H]([C@@H](C)O)C(=O)N1)[C@@H](C)O)C(=O)N1CCC[C@H]1C(=O)N[C@@H](CO)C(=O)N[C@@H](CO)C(=O)N[C@H](C(=O)N[C@@H](CC(N)=O)C(=O)N[C@H](C(=O)NCC(=O)N1CCC[C@H]1C(=O)N[C@@H](CC(N)=O)C(=O)N[C@H](C(=O)N[C@@H](Cc1ccc(O)cc1)C(N)=O)[C@@H](C)O)C(C)C)[C@@H](C)O [Example 68] (H-K([AEEA-γGlu-C20 diacid])CNTATCATQRLAHFLRHSSPNFGAIPSSTNVGPNTY-NH2; disulfide 2-7)		

SMILES	Ratio hCT/hAmylin funct. [1, 4]	Ratio hCT/hAmylin funct. [1, 5]	EC50 ([1]; human amylin receptor functional potency, assay (II), read-out: hAmylin-R funct. EC50) [pM]	Ratio hCT/hAmylin funct. [1, 6]	IC50 ([2]; Table 4, read-out: hAmylin-R bind IC50) [pM]	Ratio hCT/hAmylin binding [2, 7]	Ratio hCT/hAmylin binding [2, 8]	Ratio hCT/hAmylin binding [2, 9]	Ratio hCT/hAmylin binding [2, 10]	Ratio hCT/hAmylin binding [2, 11]	Ratio hCT/hAmylin binding [2, 12]	Ratio hCT/hAmylin binding [2, 13]	ThT pH 4.0 lag time (h) [3] [h]	EC50 [1] [pM]	IC50 [2] [pM]
CC[C@H](C)[C@H](NC(=O)[C@H](C)NC(=O)CNC(=O)[C@H](Cc1ccccc1)NC(=O)[C@H](CC(N)=O)NC(=O)[C@@H]1CCCN1C(=O)[C@H](CO)NC(=O)[C@H](CO)NC(=O)[C@H](Cc1c[nH]cn1)NC(=O)[C@H](CCCNC(=N)N)NC(=O)[C@H](CC(C)C)NC(=O)[C@H](Cc1ccccc1)NC(=O)[C@H](CCCCN)NC(=O)[C@H](C)NC(=O)[C@H](CC(C)C)NC(=O)[C@H](CCCNC(=N)N)NC(=O)[C@H](CCC(N)=O)NC(=O)[C@@H](NC(=O)[C@H](C)NC(=O)[C@@H]1CSSC[C@H](NC(=O)[C@@H](N)CCCCNC(=O)COCCOCCNC(=O)CC[C@H](NC(=O)CCCCCCCCCCCCCCCCCCC(=O)O)C(=O)O)C(=O)N[C@@H](CC(N)=O)C(=O)N[C@@H]([C@@H](C)O)C(=O)N[C@@H](C)C(=O)N[C@@H]([C@@H](C)O)C(=O)N1)[C@@H](C)O)C(=O)N1CCC[C@H]1C(=O)N[C@@H](CO)C(=O)N[C@@H](CO)C(=O)N[C@H](C(=O)N1CCC[C@H]1C(=O)N[C@H](C(=O)NCC(=O)N[C@@H](CO)C(=O)N[C@@H](CC(N)=O)C(=O)N[C@H](C(=O)N[C@@H](Cc1ccc(O)cc1)C(N)=O)[C@@H](C)O)C(C)C)[C@@H](C)O [Example 74] (H-K([AEEA-γGlu-C20 diacid])CNTATCATQRLAKFLRHSSPNFGAIPSSTPVGSNTY-NH2; disulfide 2-7; N-terminus assumed)	56.3	56.3		56.3		101.0	101.0	101.0	101.0	101.0	101.0	101.0	45	666	791
